Laboratory results as given in patent publication EP0253697A2, “Medicament and medicament compositions for the treatment of infective diseases due to viruses, as well as for the treatment of tumours” (INSTITUT NATIONAL DE LA SANTE ET DE LA RECHERCHE MEDICALE …, priority 1986, dated 1988).

What was measured:
[1] = tested on: virus de l'herpès simplex du type 1 (HSV.1); assay: Inhibition of viral lysis plaque formation (PFU) in infected VERO cells; assay type: cell-based; conditions: in vitro, DNA virus
Description: (§1) Des cellules VERO (lignée de cellules "normales") ont été infectées par le virus de l'herpès simplex du type 1 (HSV.1) ou par le virus de la rougeole à une multiplicité d'infection d'une particule infectieuse par cellule. Les cellules infectées ont été traitées par GAH aux doses indiquées sur la Figure 1. L'inhibition observée, emprimée en logarithme d'inhibition de la formation de plages de lyse cellulaire par le virus (PFU-"Plage Forming Unit") par ml de milieu, semble apparaître brusquement après avoir dépassé une concentration "seuil" située autour de 600 lim. par litre de milieu cellulaire. Le fait que la concentration optimale soit la même pour les deux virus testés, qui, comme indiqué ci-dessus, sont très différents, est en faveur d'une action de la substance au niveau cellulaire, action capable d'éveiller un état de résistance envers les virus infectants.

virus de la rougeole = assay: as above; assay type: cell-based; conditions: in vitro, RNA virus
Description: as §1

[2] = tested on: cellules (infectées ou non); assay: Toxicity for the cells (infected or not) in the antiviral experiments; assay type: cell-based
[3] = tested on: virus du sarcome de Rous (RSV, souche B77); assay: Reverse transcriptase activity in culture medium and focus formation, infected chicken fibroblasts; assay type: cell-based, poulet
Description: Il a été également montré que le GAH provoque aussi une importante inhibition de la multiplication des virus appartenant à la famille des rétrovirus (virus à ARN possédant une activité dite de transcriptase inverse, c'est-à-dire une ADN polymé- rase-ARN dépendante). Ceci a été démontré avec le virus du sarcome de Rous (RSV, virus oncogène, sous-famille oncovirinae) et avec le virus visna (virus lytique, sous-famille lentivirinae à laquelle appartient aussi le H.I.V.). • 1 - Des fibroblastes de poulet, en passage secondaire, sont ensemencés et traités, ou non, par le GAH à diverses concentrations. Ensuite, les cellules sont infectées par le RSV (souche B77). Le milieu de culture des cellules infectées est recueilli à différents temps post- infection et l'activité transcriptase inverse a été mesurée, cette mesure étant considérée généralement comme un reflet de la libération des particules virales dans les milieux de culture. […] Il est intéressant de signaler que, comme dans le cas des hespesvirus, l'activité antivirable apparaît à la même dose de GAH capable de provoquer l'arrêt de la prolifération cellulaire, ce qui est en accord avec la notion d'une action du GAH agissant en premier lieu au niveau cellulaire.

virus Visna = assay: Reverse transcriptase activity, infected sheep embryo fibroblasts; assay type: cell-based, mouton; conditions: GAH present at the time of infection, versus untreated cells; Figure 1B
[4] = tested on: carcinome de tumeur mammaire (lignée MCF7); assay: DNA synthesis (3H-thymidine incorporation) in tumour cells; assay type: cell-based, humain
Description: (§2) L'effet du GAH a été étudié sur diverses lignées cellulaires obtenues à partir de tumeurs humaines et fibroblastes de poumon foetal humain (MRC5).
(§3) - Ordonnées : incorporation de ^3H-thymidine (comptage de la radioactivité correspondante en coups par minute (CPM).

[5] = tested on: carcinome du colon (lignée HT29); assay: as above; assay type: cell-based, humain
Description: as §2, §3

[6] = tested on: cellules de tumeurs de Burkitt; assay: as above; assay type: cell-based, humain
Description: as §2, §3

[7] = tested on: llgnée de tumeur d' Ewing; assay: as above; assay type: cell-based, humain
Description: as §2, §3

mélanome = assay: as above; assay type: cell-based, humain
Description: as §2, §3

[8] = tested on: cellules de lymphome murin RBL5; assay: as above; assay type: cell-based
leucémie L1 210 [9] = assay: as above; assay type: cell-based, murin; conditions: Figure 2
Description: as §2
- Abscisses : temps de contact des différentes cellules avec le le L-glutamique acide y monohydroxamate : 1-L1210 • 2 - BL60 • 3 - NterDau • 4-B16
as §3

cellules de mélanome = assay: Survival of melanoma cells versus dose and contact time; assay type: cell-based
Protocol: Sur une lignée de mélanome prise comme exemple, on peut voir que l'effet inhibiteur est dépendant de la dose (Figure 3), mais également du temps de contact. Dès 2 heures de contact des cellules de mélanome avec 1,5 mM de GAH, il y a mort cellulaire, qui s'amplifie jusqu'à 72 heures de culture des cellules tumorales, puis les cellules échappent à cette inhibition (Figure 4). […] Ainsi, pour les cellules de mélanome, un contact de 30 heures avec 1,5 mM de GAH est nécessaire pour avoir une mort cellulaire complète à 72 heures, alors que 50 heures de contact sont nécessaires avec une concentration de drogue de 400 µM (Figure 5).
- Abscisses : temps de contact des cellules de mélanome avec différentes concentrations de GAH : • 400 µM; ○ 1 mM; . 1,5 mM - Ordonnées : pourcentage de survie des cellules de mélanome à 72 heures.

[10] = Growth, DNA synthesis and survival of normal MRC5 cells; assay type: cell-based, humain; conditions: human; normal MRC5 cells, Figure 6; read-out: doses sans mort cellulaire
Description: as §2
(§4) La croissance des cellules MRC5 dans un milieu déprimé en glutamine est aussi arrêtée, avec, cependant, un décalage dans l'inhibition par rapport à l'effet du GAH. […] Il s'agit probablement de deux mécanismes d'action différents.
(§5) • - Abscisses : temps de culture des cellules MRC5 : 1. avec différentes conditions de culture • O témoin MRC5 milieu normal • milieu déprimé en glutamine • ? milieu normal avec D-glutamyl acide (GAH 2. après élimination des différentes drogues et addition • ? milieu normal MRC5 témoin • milieu avec glutamine 2mM • ? milieu normal • ? milieu GAH + glutamine 2mM • - Ordonnées : nombre de cellules vivantes.

cellules normales MRC5 = assay: as above; assay type: cell-based, humain
Description: as §2, §4, §5

leucémie L1 210 [11] = assay: Survival of mice inoculated with L1 210 leukaemia; assay type: in vivo, souris DBA/2; conditions: 5x10^5 cells IP; 1200 mg/kg/day days 1-4, 600 mg/kg/day days 8-10; Figure 8
Description: (§6) Compte tenu des résultats in vitro, l'activité anti-tumorale de GAH a été étudiée sur deux modèles tumoraux murins : leucémie L1 210 et mélanome B16.
Pour la leucémie L1 210, maintenue par passage intra-péritonéal chez la souris DBA/2, le nombre de cellules utilisées pour les essais thérapeutiques est de 5.10^5 cellules par souris.
(§7) Les résultats positifs qui ont été obtenus sont exprimés par le pourcentage d'augmentation de la survie, considérant comme significative une augmentation de 30%.
Courbe de survie des souris DBA/2-B6D2F1 inoculées avec L1 210 (5x10^5 cellules dans 0,5 ml IP) après traitement avec L-glutamique acide monohydroxamate : 1200 mg/kg dose/jour, les jours 1, 2, 3, 4; et 600 mg/kg dose/jour, les jours 8, 9, 10 (les groupes sont constitués de 8 souris.). - Abscisses : jours après l'inoculation de cellules tumorales - Ordonnées : pourcentage de souris vivantes.

mélanome B16 = assay: Survival of mice inoculated with B16 melanoma; assay type: in vivo, souris; conditions: 10^6 cells IP; 1200 mg/kg/day days 1-4, 600 mg/kg/day days 8-11, 300 mg/kg/day days 16-19; Figure 9
Description: as §6
Pour le mélanome B16, maintenu par passage souscutanés successifs, la dose injectée par voie intra-péritonéale pour les essais thérapeutiques est de 10^6 cellules par souris.
as §7
Courbe de survie des souris C5b16 inoculées avec les cellules de mélanome B16 (10^6 cellules dans 0,5 ml IP)après traitement avec GAH : 1200 mg/kg dose/jour, les jours 1, 2, 3, 4; 600 mg/kg dose/jour, les jours 8, 9, 10, 11; et 300 mg/kg dose/jour, les jours 16, 17, 18, 19 (les groupes traités et non traités sont de 6 animaux). - Abscisses : jours après l'inoculation de cellules tumorales - Ordonnées : pourcentage de souris vivantes

[12] = tested on: colonies métas- tasiantes du mélanome B 16; assay: Cytolytic effect on cells isolated from metastases in vitro; assay type: cell-based

SMILES: N[C@@H](CCC(=O)NO)C(=O)O [GAH, L-glutamique acide y monohydroxamate]
- inhibition du virus [1]: inhibition très significative
- inhibition du virus (virus de la rougeole): inhibition très significative
- toxicité pour les cellules [2]: faible taux, voire l'absence, de toxicité
- activité transcriptase inverse dans le milieu de culture ([3]; GAH 1mM present at the time of infection, chicken fibroblasts, Figure 1A): indétectable
- formation de foyers de cellules transformées par le RSV ([3]; GAH-treated cultures, untreated controls show foci after three days): aucune formation de foyers
- activité transcriptase inverse (virus Visna): diminution considérable
- effet sur la synthèse de l'ADN [4]: effet inhibiteur total
- effet sur la synthèse de l'ADN [5]: effet inhibiteur total
- effet sur la synthèse de l'ADN [6]: effet inhibiteur total
- effet sur la synthèse de l'ADN [7]: effet inhibiteur total
- effet sur la synthèse de l'ADN (mélanome): effet inhibiteur total
- effet sur la synthèse de l'ADN [8]: effet inhibiteur total
- effet sur la synthèse de l'ADN (leucémie L1 210 [9]): effet inhibiteur total
- temps de contact nécessaire pour une mort cellulaire complète à 72 heures (cellules de mélanome; 400 µM GAH (Figure 5)): 50 heures
- temps de contact nécessaire pour une mort cellulaire complète à 72 heures (cellules de mélanome; 1,5 mM GAH (Figure 5)): 30 heures
- temps de contact à partir duquel il y a mort cellulaire (cellules de mélanome; 1,5 mM GAH, death from this contact time on, increasing up to 72 h of culture (Figure 4)): 2 heures
- MNTC [10]: ≤ 800 µM
- synthèse de l'ADN des cellules normales MRC5 (cellules normales MRC5): arrêt de synthèse de l'ADN
- réversion de la croissance par addition de glutamine (cellules normales MRC5; GAH-treated MRC5 cells, glutamine 2mM added (Figure 7)): ne reverse pas
- effet sur les cellules normales (cellules normales MRC5; reversible after removal of the drug): effet cytostatique
- activité antitumorale (augmentation de la survie) (leucémie L1 210 [11]): activité antitumorale
- activité antitumorale (augmentation de la survie) (mélanome B16): activité antitumorale
- effet sur des cellules isolées de métastases [12]: effet cytolytique
